Measurements taken from publication PMC7997937 (AMB Express, 2021).
Values after ≈ are worked out from the molar mass of the structure shown. Where no end group is shown, it is not given here.

Tests used:
[1] = system: MRSA ATCC43300; test: SEM/TEM observation of treated bacteria; type: cell-based, Staphylococcus aureus; details: 4× MIC, 2 h, 37 °C
Experimental: The bacteria were fixed with 2.5% glutaraldehyde at 4 °C overnight. For SEM, the bacterial were then dehydrated with a series of graded ethanol solutions (20%, 50%, 70%, 85%, 95% and 100%) and dried by CO2. Gold-palladium was sputtered on samples and observed on a S4800 SEM. For TEM, bacterial were post-fixed with 1% OsO4 for 1 h and then dehydrated for 7 min each time with a graded acetone series (50%, 70%, 85%, 95% and 100%). The samples were immersed in epoxy resin and embedded in capsules containing embedding medium, polymerized at 45 °C for 3 h and at 65 °C for 24 h, respectively. Ultramicrotome was used to acquire thin sections, followed by staining with 1% uranyl acetate. Images were visualized by a Hitachi H-7650 TEM (Yang et al. [2019]).

[2] = system: MRSA ATCC43300; test: microbe, parasite or virus in culture
Experimental: (§1) The MIC values of peptides against test stains were determined by the microtiter broth dilution method. The bacteria were grown to mid-logarithmic phase and diluted to 1 × 10^5 CFU/mL. Two-fold serial dilutions of peptides were prepared with a gradient concentration of 1280, 640, 320, 160, 80, 40, 20, 10, 5, 2.5, 1.25, and 0.625 μg/mL. A total of 10 μL each serial concentration gradient peptide solutions and 90 μL bacterial suspension were added into 96-well plates. Then the plate was cultured at 37 ℃ for 16–24 h. Vancomycin was tested as control. All assays were performed in triplicate. The MIC refers to the lowest peptide concentration at which there is no visible growth of bacteria (Wiegand et al. [2008]).

[3] = system: MSSA ATCC6538; test: microbe, parasite or virus in culture
Experimental: as §1

[4] = system: MSSA ATCC25923; test: microbe, parasite or virus in culture
Experimental: as §1

[5] = system: genomic DNA from MRSA ATCC43300; test: Gel retardation assay; type: binding, Staphylococcus aureus; details: 10 min, room temperature, 1% agarose gel
Experimental: To examine the interaction of peptides and MRSA genomic DNA, the gel migration experiment was performed. Genomic DNA was obtained by bacterial genome extraction kit. Different concentrations (0.625 to 20 μg/mL) of peptides and DNA were mixed and incubated for 10 min at room temperature. The migration of genomic DNA was analyzed by electrophoresis on a 1% agarose gel.

[6] = system: pepsin; details: pepsin 3000 U/mg, pH 2.0, 10:1 w/w, 4 h, 37 °C; MIC against MRSA ATCC43300
Experimental: (§2) The pH stability of peptides was determined after 3 h incubation in 100 mM glycine-HCl buffer (pH 2.0), sodium acetate buffer (pH 4.0), sodium phosphate buffer (pH 6.0), Tris-HCl buffer (pH 8.0), or glycine-NaOH buffer (pH 10.0). Additionally, peptides were incubated in pepsin (3000 U/mg, pH 2.0) and trypsin (250 U/mg, pH 8.0) (10:1, w/w) solutions for 4 h at 37 °C, respectively. The untreated peptides were used as control. The antibacterial activity of treated peptides against MRSA ATCC43300 was determined by MIC determine assay (Yang et al. [2017]). All assays were performed in triplicate.

[7] = system: trypsin; details: trypsin 250 U/mg, pH 8.0, 10:1 w/w, 4 h, 37 °C; MIC against MRSA ATCC43300
Experimental: as §2

[8] = system: MRSA ATCC43300 biofilm; test: Inhibition of biofilm formation, crystal violet; type: cell-based, Staphylococcus aureus
Experimental: To evaluate the effect of peptides on the biofilm information, mid-logarithmic phase MRSA ATCC43300 (1×10^8 CFU/mL) was grown in tryptic soy broth (TSB) medium on 96-well plates at 37 °C […] in the presence (2–64 μg/mL) or absence of peptides (de Breij et al. [2018]; de Breij et al. [2016]). Subsequently, the planktonic bacteria were removed and biofilms were stained for 30 min with 0.1% crystal violet. After rinsing with PBS twice, the dye binding to the adherent bacterial cells was resolubilized in 95% ethanol (200 μL/well). Finally, absorbance was measured at 570 nm with a microplate reader. Fresh TSB medium was used as negative control.

[9] = Temperature stability (MIC read-out); type: physicochemical; details: MIC against MRSA ATCC43300
Experimental: (§3) The untreated peptides were used as control. […] All assays were performed in triplicate.

[10] = type: physicochemical; details: for MIC at pH 2–10, folds of the normal condition: 3 h incubation in buffers pH 2.0–10.0, relative to MH medium
Experimental: as §3

[11] = ppGpp binding affinity by ZIC-HILIC HPLC; details: ppGpp 1000 μg/mL + peptide 400 μg/mL, 10 min, centrifuged, HPLC UV 260 nm; mean of triplicate; ppGpp control peak area 34904
Experimental: The temperature of the column is kept at 25 ℃. The ppGpp (TriLink BioTechnologies, USA) which diluted with mobile phase to a concentration of 1000 μg/mL, was used as a positive control. Then the ppGpp (1000 μg/mL) was incubated with peptides (400 μg/mL) for 10 min and centrifuged at 12000 rpm for 10 min. The ppGpp concentration of the samples was calculated by comparing the peak areas of the ppGpp standard.

[12] = system: MRSA ATCC43300 biofilm; test: Biofilms observed by CLSM and SEM; type: cell-based, Staphylococcus aureus; details: 64 μg/mL, 24 h, SYTO9/PI
Experimental: In order to further explore whether the formation of MRSA ATCC43300 biofilms can be inhibited by peptides, the mid-log phase bacteria were diluted to 1 × 10^8 CFU/mL with TSB medium and seeded into 24-well plates with a glass microscope slide or silicon slice in each well. A concentration of 64 μg/mL peptides were added into plates and incubated for 24 h. Planktonic bacteria were removed by washing with PBS gently. Biofilms on glass microscope slide were stained with SYTO9 and PI according to the instruction (LIVE/DEAD BacLight Bacterial Viability Kit). After incubation for 15 min, the slides were washed with PBS and the biofilms were visualized by SP8 CLSM. Biofilm on silicon slice could be observed by SEM after immobilization, dehydration, drying and coating (Yang et al. [2019]).

[13] = system: MRSA ATCC43300; test: qRT-PCR of ppGpp metabolism and biofilm formation related genes; type: cell-based, Staphylococcus aureus; details: 4× MIC, 2 h, 16s rRNA reference
Experimental: The ppGpp metabolism and biofilm formation related genes RSH, relP, relQ, rsbU, sigB, spA, codY, agrA and icaD were chosen in this study. Primer sequences were designed and listed in Additional file 1: Table S1. The 16s rRNA was used as a housekeeping one. […] After washing twice with PBS, the total RNA was isolated. Then cDNA was obtained followed by removing genomic DNA. Finally, real-time reverse transcription-polymerase chain reaction (qRT-PCR) was conducted as previously described. The relative expression ratios were calculated as follows: n-fold transcription = 2^−△△Ct, ∆∆Ct = ∆Ct (drug-treated)[…]∆Ct (untreated), where ∆Ct represents the difference between the cycle threshold (Ct) of the gene studied and the Ct of housekeeping 16s rRNA gene (internal control). Student’s t test was used for analyzing those PCR results (Lee et al. [2013]).

[14] = system: MRSA ATCC43300; test: Time-kill curves; type: cell-based, Staphylococcus aureus; details: 2× MIC
Experimental: The time-kill curves against MRSA ATCC43300 were assayed to evaluate the pharmacodynamics of peptides. The mid-log phase bacteria were diluted to 1×10^5 CFU/mL with fresh medium. […] Finally, the mixtures were cultured at 37 °C and 250 rpm. Samples (150 μL) were taken from each flask at 0, 0.5, 1, 2, 4, 6, 8, 10, 12 and 24 h of incubation, and antimicrobial efficiency was measured by plate colony count (Yang et al. [2019]). Treatment with peptide solvent (PBS) and vancomycin at 2× MIC were used as the negative and positive control. All tests were run in triplicate.

[15] = ref de la Fuente-Nunez et al. [2014]; cited from earlier work
Text: Antimicrobial peptides (AMPs) are kind of bioactive agents with multiple modes of action and appear as one of the most promising antimicrobial drug candidates (Hancock and Sahl [2006]). […] The antimicrobial activity of AMPs was mainly based on their positive charge and hydrophobic residues, which gave them the properties of bacterial cell membrane destruction (Mahlapuu et al. [2016]). Among them, a small synth ...

Compound: VRLRWWRRRWRR-NH2 [1018M]
- ghost bacteria (TEM) [1]: About 10%
- MIC ([2]; ATCC43300): 2 µg/mL
- MIC ([3]; ATCC6538): 1 µg/mL
- MIC ([4]; ATCC25923): 2 µg/mL
- concentration inhibiting migration of genomic DNA [5]: 5 µg/mL
- activity after treatment with pepsase [6]: 100%
- MIC after trypsin, times of the untreated peptide [7]: 16-32 times
- decrease of percentage of biofilm ([8]; 64 μg/mL, 24 h, A570): 78.9%
- antibacterial activity after heat exposure ([9]; 20, 40, 60, 80 or 100 °C for 1 h, triplicate): not changed
- MIC at pH 2–10 ([10]; 3 h, pH 2): 2–4 μg/mL
- MIC at pH 2–10, folds of the normal condition [10]: 1–2 folds
- mean ppGpp peak area after incubation with peptide [11]: 14255
- biofilm formation observed by CLSM [12]: completely inhibited
- transcription of AgrA gene, times upregulated [13]: 2.595 time

Compound: CN[C@H](CC(C)C)C(=O)N[C@H]1C(=O)N[C@@H](CC(N)=O)C(=O)N[C@H]2C(=O)N[C@H]3C(=O)N[C@H](C(=O)N[C@H](C(=O)O)c4cc(O)cc(O)c4-c4cc3ccc4O)[C@H](O)c3ccc(c(Cl)c3)Oc3cc2cc(c3O[C@@H]2O[C@H](CO)[C@@H](O)[C@H](O)[C@H]2O[C@H]2C[C@](C)(N)[C@H](O)[C@H](C)O2)Oc2ccc(cc2Cl)[C@H]1O [vancomycin, reference compound]
- MIC ([2]; Staphylococcus aureus): 1 µg/mL (≈ 0.69 µM)
- MIC ([3]; Staphylococcus aureus): 1 µg/mL (≈ 0.69 µM)
- MIC ([4]; Staphylococcus aureus): 1 µg/mL (≈ 0.69 µM)
- incubation time after which bacteria rejuvenated [14]: 10 h

Compound: VRLIVAVRIWRR-NH2 [IDR-1018, reference compound]
- MBIC100 (anti-biofilm) [15]: 2 to 10 µg/mL
- MIC (antibacterial) [15]: 8 to 256 µg/mL
- concentration inhibiting migration of genomic DNA [5]: 1.25 µg/mL
- MIC after trypsin, times of the untreated peptide [7]: 16-32 times
- impact on biofilm formation ([8]; 2–64 μg/mL): nearly no impact
- retained antibacterial activity ([9]; 100 °C for 1 h): 50%
- MIC at pH 2–10, folds of the normal condition [10]: 1-4 times
- mean ppGpp peak area after incubation with peptide [11]: 19723
